We go through two molecules from US7595310B2, “Glucuronate salt of a piperazine compound” (Solvay Pharmaceuticals, B.V., priority 2005, dated 2009).

For series [1] the following is noted: in vivo; cited from earlier work.
In the next series the test system is 5HT reuptake. Conditions: in therapeutic models; cited from earlier work.
Series [2] can be described thus: Comparative equilibrium solubility of salts of compound 1. To be noted: pH printed beside the equilibrium solubility.
The next series has as its target D2 receptors (Homo sapiens, UniProt P14416). Conditions: in therapeutic models; cited from earlier work.
The conditions of series [3]: rodents; cited from earlier work.

D2 receptors, sequence (P14416 whole entry): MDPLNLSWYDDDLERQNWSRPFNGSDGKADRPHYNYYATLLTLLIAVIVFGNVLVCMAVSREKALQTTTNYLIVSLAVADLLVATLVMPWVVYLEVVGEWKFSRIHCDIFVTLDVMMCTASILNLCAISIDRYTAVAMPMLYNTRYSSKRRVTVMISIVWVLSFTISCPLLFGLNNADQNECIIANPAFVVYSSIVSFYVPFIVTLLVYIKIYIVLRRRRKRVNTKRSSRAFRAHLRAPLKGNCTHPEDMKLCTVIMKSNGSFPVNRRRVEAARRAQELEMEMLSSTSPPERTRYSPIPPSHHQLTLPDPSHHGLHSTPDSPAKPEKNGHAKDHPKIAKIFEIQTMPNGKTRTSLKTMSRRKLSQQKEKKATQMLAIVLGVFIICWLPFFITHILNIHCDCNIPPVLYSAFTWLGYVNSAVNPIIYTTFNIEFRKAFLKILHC

As for `CC1Oc2c(cccc2N2CCN(CCCc3c[nH]c4ccc(F)cc34)CC2)NC1=O` (stereo not drawn) [compound 1, 8-{4-[3-(5-fluoro-1H-indol-3-yl)-propyl]-piperazin-1-yl}-2-methyl-4H-benzo[1,4]oxazin-3-one], the “activity in therapeutic models sensitive to clinically relevant antipsychotics, antidepressants, anxiolytics, Parkinson's disease” value in series [1] is listed as “active”. For the same molecule, the “activity against 5HT reuptake” value in the series on 5HT reuptake is given as “inhibitory activity”. For the same molecule, the pH in series [2] (listed as freebase (1)) turned out to be 4.72. Also, on D2 receptors, the “activity at D2 receptors” value is reported as “antagonistic activity”. In addition, the “propensity to induce catalepsy” value in series [3] is recorded as “low propensity”.

As for `CC1Oc2c(cccc2N2CCN(CCCc3c[nH]c4ccc(F)cc34)CC2)NC1=O` (stereo not drawn) [compound 2], in series [2] (listed as glucuronate (2)), the pH is 4.25.
